The values that follow come from patent US20230219898A1, “COMPOUNDS AND METHODS FOR BLOCKING APOPTOSIS AND INDUCING AUTOPHAGY” (President and Fellows of Harvard College, priority 2020, published 2023).

For assay [1], the system named is H4-GFP-LC3 cells. The experiment in a line: Autophagy induction, GFP-LC3 puncta and LC3II immunoblotting. The class given is cell-based. The note with it: 10 μM, 6 h (zVAD.fmk 20 μM). The protocol:
Mean ±s.e.m. (n=5). One-way ANOVA, post hoc Dunnett's test.
Autophagy was determined by LC3II levels using immunoblotting. SE=shorter exposure, LE=longer exposure.
Autophagy was measured by LC3II induction and p62 reduction by immunoblotting. The levels of LC3II in cells treated with both Apt-1 and NH4Cl, the latter of which inhibits lysosome, were higher than that treated with either Apt-1 or NH4Cl alone. Thus, ICCB-19/Apt-1, but not ICCB-19i, induce autophagic flux. Mean ±s.e.m. from technical triplicates (n=3), representative of 3 independent experiments. Two-tailed t-test. **P=0.0037.
Levels of LC3II determined by immunoblotting.
Cells were seeded at 2.5×10^4 cells per well on poly-L-lysine coated glass cover slips and transfected as described. Cells were fixed in 4% paraformaldehyde, followed by permeabilization with 0.1% Triton X-100. Nuclei were stained using DAPI (Sigma). Cells expressing GFP or RFP-fusion proteins were imaged with an Olympus Fluoview FV1000 confocal microscope (Olympus) using a 40×objective. For GFP-LC3 and DsRed-FYVE puncta quantification, the average spot intensity in 1000 cells from each indicated sample was determined. Images were processed using ImageJ and Photoshop CC. Concentration of compounds used to induce or block autophagy: 10 μM (Apt-1, ICCB-19, ICCB-19i or Spautin-1), for 6 h or as indicated.
(Immunoblotting shows a protein as a band on a membrane.)

In assay [2] the test system is mTOR. The assay can be described thus: mTOR signalling immunoblotting in MEFs. The class given is cell-based, mouse. The note with it: 10 μM. The text has this: Cell lysates analyzed by immunoblotting using indicated antibodies.
Assay [3] concerns Beclin 1/Vps34 kinase complex. The experiment in a line: Vps34 lipid kinase assay on Beclin 1/Vps34 complex from treated HEK293T cells. The class given is cell-based. The conditions noted are these: 10 μM, 6 h. The protocol:
FIG. 6j Beclin 1/Vps34 kinase complex isolated from Flag-Beclin 1 transfected HEK293T cells treated with ICCB-19, Apt-1, or ICCB-19i (10 μM) for 6 h. PI3P kinase activity was measured by in vitro lipid kinase assay using ADP-Glo Kinase Assay Kit. Wortmannin (10 μM) was used as a control to inhibit Vps34 kinase activity. Mean±s.d. from technical quadruplicates (n=4), representative of 3 independent experiments. One-way ANOVA, post hoc Dunnett's tests. ***P=0.0003; ***P<0.001 (left to right).
WT mice (n=10, male, 8 weeks of age) were injected intravenously via the tail vein with mTNFα (9.5 μg/mouse) after an intraperitoneal injection of Apt-1 (20 mg/kg) 30 min before. Control mice (n=9) received an equal amount of vehicle 30 min before mTNFα challenge. Kaplan Meier survival curve was determined. 25. Vps34 lipid kinase assay HEK293T cells were transfected with Flag-Beclin 1 for 18 h and then treated with ICCB-19, ICCB-19i, Apt-1 (10 μM) for another 6 h. Flag-Beclin 1 was immunoprecipitated by anti-Flag to isolate Beclin 1/Vps34 complex. Immunoprecipitated beads were added with sonicated phosphatidylinositol (1 μl of 5 mg) and ATP (1 μl of 10 mM) in 30 μl reaction buffer (40 mM Tris (pH 7.5), 20 mM MgCl2, 1 mg/ml BSA) for 30 min at room temperature. […] The conversion of ATP into ADP levels was measured by an ADP-Glo Kinase Assay Kit (Promega) according to the manufacturer's instructions.

The test system of assay [4] is Beclin 1. The experiment in a line: K63-linkage specific ubiquitination of Beclin 1 in MEFs. The class given is cell-based, mouse. The note with it: 6 h. From the text:
Anti-K63-linkage specific polyubiquitin antibody was used to conduct secondary immunoprecipitation. Samples were then immunoblotted with anti-Beclin 1 antibody to measure the K63-linkage specific ubiquitination of Beclin 1.

The subject of assay [5] is H4 cells. The assay can be described thus: Long-lived protein degradation assay. Format: cell-based. The conditions noted are these: 10 μM, 6 h. The protocol: The rates of long-lived protein turnover in H4 cells treated with indicated compounds (10 μM, 6 h); rapamycin as positive control. Values expressed as fold changes relative to normal control cells. Mean ±s.e.m. from 4 independent experiments (n=4). One-way ANOVA, post hoc Dunnett's test. **P=0.002, 0.0023 (left to right); *P=0.0229; n.s. not significant (P=0.8669).
H4 cells were cultured with L-[3,4,5-^3H(N)]-leucine (0.1 μCi/ml) (PerkinElmer Life Sciences) for 24 h and chased in media with nonradioactive leucine for 18 h to let the degradation of short-lived proteins happen. Then the media was changed and incubated for additional 6 h along with different compounds (10 μM Apt-1, 10 μM ICCB-19, 10 μM ICCB-19i, 1 μM rapamycin). The media were recovered and treated with 10% trichloroacetic acid to separate trichloroacetic acid-soluble (amino acids) and trichloroacetic acid-insoluble (proteins) fractions. The cells were completely dissolved with 1N NaOH. Radioactivity was measured with a liquid scintillation analyzer (PerkinElmer). Long-lived protein degradation was calculated by dividing trichloroacetic acid-soluble radioactivity in the media by total radioactivity detected in the cells and media. The values were expressed as changes in fold from the value obtained in control cells.

The target of assay [6] is T1, TRADD-N and TRADD-C (Homo sapiens, UniProt Q15628).
T1 construct: expression constructs encoding Flag-TRADD-N(1-179) and HA-TRADD-C(180-312); expressed in transfected cells; host or cells: HEK293T
The assay can be described thus: NanoBiT protein-protein interaction assay TRADD-N / TRADD-C. The class given is cell-based. The conditions noted are these: 4 h. On the procedure:
Constructs were made encoding LgBiT and SmBiT fused to the N and C termini of TRADD-N and TRADD-C, respectively. HEK293T cells were transfected with these two plasmids for 24 h and then treated with indicated compounds for 4 h. The luminescence indicating the interaction of TRADD-N and TRADD-C was measured using Nano-Glo Live Cell Reagent. Mean ±s.d. from quintuplicates (n=5).
The Nano-Glo Live Cell assay kit (Promega) was used as follows: HEK293T cells were seeded at 7.5×10^3 cells per well in a white, clear-bottom 96-well plate 12 h before transfection (10 ng LgBiT-fused construct and 10 ng SmBiT-fused construct). After 24 h incubation, medium was removed and replaced with 100 μl Opti-MEM medium for 1 h at 37C. The Nano-Glo reagent was prepared as per manufacturer's instructions and added to each well immediately before the luminescence reading was taken. Luminescence was measured at 1 min intervals for 10 min on a plate reader and reported as relative light units (RLU). For quantitative comparison of LgBiT-SmBiT interactions, the peak values at the 2-3 min time point were used. Concentration of compounds used in NanoBiT assay: 10 μM (Apt-1, ICCB-19 or ICCB-19i).

The target of assay [7] is T2, RIPK1 (Homo sapiens, UniProt Q13546).
T2 construct: expressed in transfected cells; host or cells: HEK293T
The assay can be described thus: Activation of overexpressed Flag-RIPK1 in HEK293T cells (p-S166). The class given is cell-based. The note with it: 10 μM, 12 h. On the procedure:
The activation of RIPK1 was determined by immunoblotting using p-S166 RIPK1 antibody.

Each structure is given as a SMILES string.

T1 sequence (Q15628 1-179): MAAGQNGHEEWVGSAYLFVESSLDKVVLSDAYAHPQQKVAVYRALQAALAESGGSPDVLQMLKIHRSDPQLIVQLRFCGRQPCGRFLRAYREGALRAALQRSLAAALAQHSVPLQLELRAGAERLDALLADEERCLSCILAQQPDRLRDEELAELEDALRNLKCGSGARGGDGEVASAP
T2 sequence (Q13546 whole entry, species assumed): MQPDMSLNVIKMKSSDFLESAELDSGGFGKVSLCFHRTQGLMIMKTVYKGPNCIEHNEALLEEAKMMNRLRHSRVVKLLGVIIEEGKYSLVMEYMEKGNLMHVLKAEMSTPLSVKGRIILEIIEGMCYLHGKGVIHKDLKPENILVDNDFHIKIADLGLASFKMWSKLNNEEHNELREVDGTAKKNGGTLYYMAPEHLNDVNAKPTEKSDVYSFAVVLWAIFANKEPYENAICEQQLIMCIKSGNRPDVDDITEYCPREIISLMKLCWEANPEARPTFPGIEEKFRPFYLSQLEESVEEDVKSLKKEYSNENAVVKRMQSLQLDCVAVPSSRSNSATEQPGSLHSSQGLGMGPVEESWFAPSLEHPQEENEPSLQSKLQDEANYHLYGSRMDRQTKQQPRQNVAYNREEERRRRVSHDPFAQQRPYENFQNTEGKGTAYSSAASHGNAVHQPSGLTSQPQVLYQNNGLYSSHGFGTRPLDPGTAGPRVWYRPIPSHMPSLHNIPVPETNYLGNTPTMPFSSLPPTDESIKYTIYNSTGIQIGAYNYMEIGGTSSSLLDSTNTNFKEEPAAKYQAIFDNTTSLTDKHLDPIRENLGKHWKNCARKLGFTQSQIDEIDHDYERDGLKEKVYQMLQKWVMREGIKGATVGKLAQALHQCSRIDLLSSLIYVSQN

As to `CN1CCN=C1SC(C(=O)NC1CCCCCC1)c1ccccc1` (centres unmarked) [Compound 30], the induction of autophagy result in assay [1] is reported as “effectively induced autophagy”. In assay [2], the “effect on mTOR” value is reported as “no effect on mTOR”. Moreover, the “Vps34 lipid kinase activity” value in assay [3] is recorded as “increased Vps34 lipid kinase activity”. In addition, the “Beclin 1 K63 ubiquitination” value in assay [4] is recorded as “dramatically enhanced”. Also, the “degradation of long-lived proteins” value in assay [5] is listed as “effectively induced”. The “NanoBit interaction signal between LgBiT-TRADD-N and TRADD-C-SmBiT” value in assay [6] was “dose-dependently reduced”. In addition, the “inhibition of activation of overexpressed RIPK1” value in assay [7] is reported as “cannot inhibit”.

`O=C(CSC1=NCCN1)NC1CCCCCC1` [ICCB-19]: in assay [1], the induction of autophagy result is on record as “effectively induced autophagy”. In addition, the “effect on mTOR” value in assay [2] is given as “no effect on mTOR”. The “Vps34 lipid kinase activity” value in assay [3] is listed as “increased Vps34 lipid kinase activity”. For the same compound, the “Beclin 1 K63 ubiquitination” value in assay [4] was “dramatically enhanced”. For the same compound, the “degradation of long-lived proteins” value in assay [5] was “effectively induced”. In addition, in assay [6], the “NanoBit interaction signal between LgBiT-TRADD-N and TRADD-C-SmBiT” value is “dose-dependently reduced”. In assay [7], the “inhibition of activation of overexpressed RIPK1” value is recorded as “cannot inhibit”.
